# In paper PMC3679022, “A Cancer Specific Cell-Penetrating Peptide, BR2, for the Efficient Delivery of an scFv into Cancer Cells” (PLoS ONE, 2013):
# Residues, ends and D or L forms follow the SMILES beside them.
# Legend:
# [1] = test system: HeLa cells; type: cell-based, human; settings: FACS
# Procedure: To evaluate the internalization of FITC-labeled peptides, HeLa cells were seeded onto 12-well plates at a density of 2×10^5 cells per well and incubated for 24 h. FITC-labeled peptides, at various concentrations ranging from […], were then incubated with the cells for 30 min at 37°C. To compare the cellular uptake of peptides, cancer and normal cells were treated with FITC-labeled peptides (each, 10 µM) and incubated for 30 min at 37°C. Following the incubation, cells were washed three times with ice-cold PBS to remove excess extracellular complexes. Next, the cells were treated with trypsin (1 mg/ml) for 10 min to remove any remaining peptides bound to the cell surface. After trypsinization, the cells were collected by centrifugation (1,000×g for 5 min), resuspended with 500 µl ice-cold 2% FBS/PBS containing propidium iodide (PI), and then immediately analyzed (10,000 events/sample) by fluorescence activated cell sorting (FACS).
# To understand further the cell-penetrating mechanism of peptides, the effects of temperature and metabolic inhibitors were examined. To elucidate the temperature dependency, HeLa cells were incubated at 4°C for 30 min prior to the addition of the peptides. Next, cells were treated with FITC-labeled peptides (each, 5 µM) at 4°C for 30 min. For the energy-depletion study, HeLa cells were preincubated with sodium azide (NaN3, 10 mM) at 37°C for 1 h and then incubated with FITC-labeled peptides (each, 5 µM) at 37°C for 30 min.
# To study the role of endocytosis in peptide uptake, cells were pretreated with several endocytosis inhibitors at 37°C for 1 h: (i) amiloride (5 mM), which is known to block macropinocytosis by inhibiting a sodium channel; (ii) nocodazole (100 ng/ml), which inhibits the clathrin-mediated pathway; and (iii) methyl-ß-cyclodextrin (MßCD, 5 mM), which inhibits lipid raft-mediated processes by depleting cholesterol from the plasma membrane. All inhibitors were purchased from Sigma (St. Louis, MO).
# To examine the effects of negatively charged components on the cell surface for peptide internalization, HeLa cells were pretreated with gangliosides (monosialoganglioside GM3 from canine blood), heparin sulfate, or sialic acid (Neu5Ac, all from Sigma) (20 µg/ml) for 30 min. For the inhibition of ganglioside biosynthesis, cells were pretreated with D-threo-1-phenyl-2-hexadecanoyl amino-3-morpholino-1-propanol (PPMP, 5 µM) for 48 h.
# For all of these experimental conditions, flow cytometry analyses were performed with live cells using a Becton Dickinson FACSCalibur flow cytometer (BD Biosciences, San Diego, CA). In each case, the fluorescence of 10,000 viable cells was acquired. Viable cells were gated based on a sideward and forward scatter. For data analysis, WinMDI software (Joe Trotter, Scripps Research Institute, La Jolla, CA) was used. The statistical significance was evaluated by Student’s t-test at a 95% confidence interval.
# Figure 2 BR2 specifically penetrates cancer cell membranes in a concentration-dependent manner. (A) Analysis of the cell-penetrating efficiency of each peptide in different cell types by flow cytometry. FITC-labeled Tat, BR1 and BR2 peptides (10 µM) were added to different cell types: HeLa, HCT116 and B16/F10 cancer cells and HaCat, BJ and NIH 3T3 normal cells. After 30 min of incubation at 37°C, the FITC-positive cells were counted by flow cytometry. Values represent the percentage of fluorescence-positive cells in the total cell population. (B) Quantitative assessment of cell penetration of each peptide by flow cytometry. HeLa cells were incubated with FITC-labeled peptides at concentrations of 1, 2, 5, or 10 µM for 30 min at 37°C. Afterwards the cells were washed with cold PBS and harvested and cellular fluorescence was analyzed by flow cytometry. […] Prior to analysis, extracellular fluorescence of surface bound peptides was removed by a trypsin treatment (1 mg/ml for 10 min). […]
# [2] = test system: HCT116 cells (K-ras mutated cells); test: Cell proliferation assay (MTT); type: cell-based, human; set-up: dose or concentration left out as unconfirmed; settings: same concentrations as fusion proteins (Fig. S4:), 24 h
# Procedure: To assess the anti-proliferative activity of peptides and anti-Ras scFv fusion proteins, HCT116 cells (K-ras mutated cells) were seeded in 96-well plates at a density of 2×10^4 cells/well in 100 µL of DMEM supplemented with 10% FBS and cultured for 24 h at 37°C. […] Cell viability was measured with the 3-(4,5-dimethylthiazol-2-yl)-2,5-diphenyl tetrazolium bromide (MTT) assay using the CellTiter 96® Non-radioactive Cell Proliferation assay kit (Promega, Madison, WI) according to the manufacturer’s instructions. The absorbance of the solution was measured at 570 nm using a Microplate Reader (Bio-Rad). Cell viability was expressed as the percentage of viable cells treated with scFv or peptide-scFv fusion proteins compared to the PBS-treated control (100%). All experiments were done in triplicate.
# Figure 4 Intracellular uptake of peptides and anti-Ras scFv fusion proteins and their anti-proliferative activity. […] (B) Protein uptake was analyzed by Western blotting of fractionated lysates from HCT116 cells treated with PBS, anti-Ras scFv, BR2- or Tat-scFv fusion protein (each, 2 µM) at 37°C for 2 h. […] Cell proliferation was determined using the MTT assay. […]
# HCT116 cells were seeded in 96-well plates at a density of 2×10^4 cells/well in 100 μl of DMEM supplemented with 10% FBS and cultured for 24 h at 37°C. […] The absorbance of the solution was measured at 570 nm using a Microplate Reader (Bio-Rad). […]
# [3] = test system: human erythrocytes; type: cell-based; settings: 25 µM, pH 7.4
# Procedure: Hemolytic activity was assayed as described by Aboudy et al. with slight modifications; 3 ml of freshly prepared human erythrocytes was washed with isotonic PBS, pH 7.4, until the color of the supernatant turned clear. The washed erythrocytes were then diluted to a final volume of 20 ml with the same buffer. Peptide samples (10 µl), serially diluted in PBS, were added to 190 µl of the cell suspension in microcentrifuge tubes. Following gentle mixing, the tubes were incubated at 37°C for 30 min and then centrifuged at 4,000×g for 5 min. The supernatant (100 µl) was removed to a new tube and the absorbance at 567 nm was determined. The relative optical density, as compared with that of the cell suspension treated with 0.2% Triton X-100, was defined as percentage of hemolysis. The hemolysis percentage was calculated using the following equation: percentage hemolysis = [(Abs 567 nm in the peptide solution – Abs 567 nm in PBS)/(Abs 567 nm in 0.2% Triton X-100 – Abs 567 nm in PBS)]×100.
# (§1) (B,C) In vitro cytotoxicity of peptides.
# [4] = test system: normal cells (HaCat, BJ and NIH 3T3); test: Confocal laser scanning microscopy of FITC-labeled peptide uptake, normal cells; type: cell-based, human, mouse; settings: FITC-labeled peptide 5 µM, 30 min, 37°C, live unfixed cells
# Procedure: (§2) To investigate the cell-penetrating ability and the intracellular distribution of the internalized peptides, live confocal microscopy was performed on three cancer lines (HeLa, HCT116 and B16/F10) and three normal cell lines (HaCat, BJ and NIH 3T3). Briefly, cells (2×10^5) were plated on a glass coverslip placed in a 6-well plate, grown overnight, and then incubated with FITC-labeled peptides (5 µM for each cell line) for 30 min. The cells were then rinsed three times with phosphate buffered saline (PBS, pH 7.4), and mounted on microscope slides with fluorescence mounting solution (Dako Corp, Carpinteria, CA). Colocalization of BR2 with lysosomes was observed by using LysoTracker Red DND-99 (Molecular Probe, Eugene, OR). To avoid the effects of fixation artifacts, involving both methanol and paraformaldehyde, cells were not fixed, [27]. The distribution of FITC-labeled peptides was analyzed using a confocal scanning laser Zeiss LSM 510 microscope (Jena, Germany) equipped with a 40× and 20× objective. Fluorophores were excited with an argon laser (488 nm) for FITC and a HeNe laser (543 nm) for LysoTracker Red.
# as §1
# [5] = test system: cancer cells (HeLa, HCT116 and B16/F10); test: Confocal laser scanning microscopy of FITC-labeled peptide uptake, cancer cells; type: cell-based, human, mouse; settings: FITC-labeled peptide 5 µM, 30 min, 37°C, live unfixed cells
# Procedure: as §2, §1
compound,measurement,setting,value
"RKKRRQRRR [Tat, well-known CPP Tat (49–57), reference compound]",decrease of cellular uptake at 4°C compared to 37°C,"[1]; FITC-labeled peptide 5 µM, 30 min at 4°C after preincubation at 4°C",31.6%
same,reduction of uptake by ATP depletion (sodium azide),"[1]; NaN3 10 mM preincubation 1 h 37°C, then FITC-labeled peptide 5 µM 30 min 37°C",42.5%
same,effect of ganglioside synthesis inhibitor PPMP on peptide uptake,[1]; PPMP 5 µM pretreatment 48 h,not
same,effect of exogenous gangliosides on peptide penetration,"[1]; gangliosides (GM3) 20 µg/ml, 30 min",not affected
same,effect of exogenous heparin on peptide uptake,"[1]; heparin 20 µg/ml, 30 min",severely reduced
same,effect of exogenous sialic acids on peptide penetration,"[1]; sialic acid (Neu5Ac) 20 µg/ml, 30 min",not affected
same,anti-proliferative activity of peptide alone,[2],did not show any detectable inhibitions
"CC(C)C[C@H](NC(=O)CNC(=O)[C@H](C)NC(=O)[C@@H](N)CCCNC(=N)N)C(=O)N[C@@H](CCC(N)=O)C(=O)N[C@@H](Cc1ccccc1)C(=O)N1CCC[C@H]1C(=O)N[C@H](C(=O)NCC(=O)N[C@@H](CCCNC(=N)N)C(=O)N[C@@H](CC(C)C)C(=O)N[C@@H](CC(C)C)C(=O)N[C@@H](CCCNC(=N)N)C(=O)N[C@@H](CCCNC(=N)N)C(=O)N[C@@H](CC(C)C)C(=O)N[C@@H](CC(C)C)C(=O)N[C@@H](CCCNC(=N)N)C(=O)N[C@@H](CCCNC(=N)N)C(=O)N[C@@H](CC(C)C)C(=O)N[C@@H](CC(C)C)C(=O)N[C@@H](CCCNC(=N)N)C(=O)O)C(C)C [BR3, buforin IIb] (H-RAGLQFPVGRLLRRLLRRLLR-OH)",hemolysis,[3],≥ 5%
RAGLQFPVGRLLR [BR1],cellular uptake (confocal microscopy),[4],negligible cellular uptake levels
same,cellular uptake (confocal microscopy),[5],negligible cellular uptake levels
